Measurements published in ChEMBL document CHEMBL4038351, “Structure-Guided Development of Covalent and Mutant-Selective Pyrazolopyrimidines to Target T790M Drug Resistance in Epidermal Growth Factor Receptor” (J Med Chem, 2017).
Values after ≈ are worked out from the molar mass of the structure shown. Active and inactive are the calls of the source. No cut-off for these calls is given here.

Tests used:
A549 [1] = assay: Antiproliferative activity against human A549 cells harboring KRAS-G12S mutant at 30 uM incubated for 96 hrs measured on day 5 by CellTiterGlo assay; assay type: cell-based; details: a549, 96 h
A-431 [2] = assay: Antiproliferative activity against human A431 cells expressing wild type EGFR at 30 uM incubated for 96 hrs measured on day 5 by CellTiterGlo assay; assay type: cell-based; details: a-431, 96 h
[3] = biological target: Epidermal growth factor receptor (Homo sapiens, UniProt P00533)
NCI-H1975 [4] = assay: Antiproliferative activity against human NCI-H1975 cells harboring EGFR-L858R/T790M double mutant at 30 uM incubated for 96 hrs measured on day 5 by CellTiterGlo assay; assay type: functional, cell-based
[5] = biological target: Epidermal growth factor receptor (Homo sapiens, UniProt P00533, L858R/T790M)
[6] = biological target: Epidermal growth factor receptor (Homo sapiens, UniProt P00533, L858R)
HCC827 = assay: cells; assay type: functional, cell-based; details: Homo sapiens;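 note: antiproliferative effect on HCC827 cells carrying EGFR delE746_A750 mutation, 96 h exposure, viability read by CellTiter-Glo luminescence on day 5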
Description: Antiproliferative activity against human HCC827 cells harboring EGFR-delE746_A750 mutant incubated for 96 hrs measured on day 5 by CellTiterGlo assay

Mus musculus [7] = assay: Toxicity in RjOrl:SWISS (CD1) mouse at 20 mg/kg, ip; assay type: organism-based; details: in vivo
[8] = Cmax in RjOrl:SWISS (CD1) mouse plasma at 20 mg/kg, po administered via gavage; assay type: ADME, organism-based; set-up: dose 20 mg/kg, route oral
[9] = Apparent permeability across basolateral to apical side in human Caco2 cells at 5 uM incubated for 2 hrs; assay type: ADME, cell-based, Caco-2; details: Caco-2
[10] = Kinetic solubility in Hepes buffer at 500 uM at pH 7.4 after 90 mins; assay type: physicochemical; details: read-out: Kinetic_solubility
[11] = Half life in RjOrl:SWISS (CD1) mouse plasma at 20 mg/kg, po administered via gavage; assay type: ADME, organism-based
in vitro [12] = details: human, liver microsomes
[13] = AUC in RjOrl:SWISS (CD1) mouse plasma at 20 mg/kg, po administered via gavage; assay type: ADME, organism-based
[14] = Metabolic stability in human plasma at 5 uM incubated for 1 hr by LC-MS method; assay type: ADME, cell-free; details: read-out: Stability
[15] = Oral bioavailability in RjOrl:SWISS (CD1) mouse plasma at 20 mg/kg administered via gavage; assay type: ADME, organism-based
Mus musculus [16] = assay: Time duration during which free plasma concentration stays above in vitro EC50 for human NCI-H1975 cells harboring EGFR-L858R/T790M double mutant in RjOrl:SWISS (CD1) mouse at 20 mg/kg, ip
A-431 [17] = assay: cells; assay type: ADME, cell-based; details: Homo sapiens
Description: Antiproliferative activity against human A431 cells expressing wild type EGFR incubated for 96 hrs measured on day 5 by CellTiterGlo assay

in vitro [18] = details: mouse, liver microsomes
[19] = Ratio of free Cmax in RjOrl:SWISS (CD1) mouse plasma at 20 mg/kg, ip to EC50 for antiproliferative activity against human NCI-H1975 cells harboring EGFR-L858R/T790M double mutant
[20] = Volume of distribution at steady state in RjOrl:SWISS (CD1) mouse plasma at 2 mg/kg, iv; assay type: ADME, organism-based; details: read-out: Vdss
[21] = Metabolic stability in mouse plasma at 5 uM incubated for 1 hr by LC-MS method; assay type: ADME, cell-free; details: read-out: Stability
in vitro [22] = details: human, Caco-2
Description: Efflux ratio of apparent permeability from basolateral side to apical side over apical side to basolateral side over in human Caco2 cells at 5 uM incubated for 2 hrs

[23] = Permeability of the compound at 500 uM incubated for 20 hrs by PAMPA; assay type: physicochemical
Mus musculus [24] = assay: Toxicity in RjOrl:SWISS (CD1) mouse at 2 mg/kg, iv; assay type: organism-based; details: in vivo
[25] = tested on: Epidermal growth factor receptor (Homo sapiens), P00533 [L858R,T790M]; assay: Covalent binding affinity to human recombinant GST-tagged EGFR L858R/T790M double mutant expressed in baculovirus expression system by mass spectrometry
Mus musculus [26] = assay: Toxicity in RjOrl:SWISS (CD1) mouse at 20 mg/kg, po administered via gavage; assay type: organism-based; details: in vivo
[27] = Clearance in RjOrl:SWISS (CD1) mouse plasma at 2 mg/kg, iv; assay type: ADME, organism-based
Mus musculus [28] = assay: Bioavailability in RjOrl:SWISS (CD1) mouse plasma at 20 mg/kg, ip; assay type: ADME, organism-based; details: in vivo
[29] = Initial concentration in RjOrl:SWISS (CD1) mouse plasma at 2 mg/kg, iv; assay type: ADME, organism-based
[30] = Fraction unbound in mouse 100% plasma at 5 uM incubated for 6 hrs by LC-MS method; assay type: ADME, cell-free
NCI-H1975 [31] = assay: cells; assay type: functional, cell-based; details: Homo sapiens
[32] = Half life in RjOrl:SWISS (CD1) mouse plasma at 20 mg/kg, ip; assay type: ADME, organism-based
[33] = Total Cmax in RjOrl:SWISS (CD1) mouse plasma at 20 mg/kg, ip; assay type: ADME, organism-based; set-up: dose 20 mg/kg, route intraperitoneal
[34] = Apparent permeability across apical to basolateral side in human Caco2 cells at 5 uM incubated for 2 hrs; assay type: ADME, cell-based, Caco-2; details: Caco-2
A549 [35] = assay: cells; assay type: ADME, cell-based; details: Homo sapiens
Description: Antiproliferative activity against human A549 cells harboring KRAS-G12S mutant incubated for 96 hrs measured on day 5 by CellTiterGlo assay

[36] = Ratio of total Cmax in RjOrl:SWISS (CD1) mouse plasma at 20 mg/kg, ip to EC50 for antiproliferative activity against human NCI-H1975 cells harboring EGFR-L858R/T790M double mutant
Mus musculus [37] = assay: Free Cmax in RjOrl:SWISS (CD1) mouse plasma at 20 mg/kg, ip; assay type: ADME, organism-based; details: in vivo
[38] = AUC in RjOrl:SWISS (CD1) mouse plasma at 20 mg/kg, ip; assay type: ADME, organism-based
[39] = Half life in RjOrl:SWISS (CD1) mouse plasma at 2 mg/kg, iv; assay type: ADME, organism-based
[40] = AUC in RjOrl:SWISS (CD1) mouse plasma at 2 mg/kg, iv; assay type: ADME, organism-based
Mus musculus [41] = assay: Time duration during which total plasma concentration stays above in vitro EC50 for human NCI-H1975 cells harboring EGFR-L858R/T790M double mutant in RjOrl:SWISS (CD1) mouse at 20 mg/kg, ip

Compound: CCC(=O)N1CCC[C@@H](n2nc(-c3ccc(C(F)(F)F)cc3)c3c(N)ncnc32)C1
- Activity (A549 [1]): Non-Toxic
- Activity (A-431 [2]): Non-Toxic
- IC50 [3]: 6500 nM
- Activity (NCI-H1975 [4]): inactive
- IC50 [5]: > 10000 nM
- IC50 [6]: 5900 nM
- EC50 (HCC827): 23600 nM

Compound: C=CC(=O)N1CCC[C@@H](n2nc(-c3cn(C)c4ccccc34)c3c(N)ncnc32)C1
- Activity (Mus musculus [7]): Non-Toxic
- Cmax [8]: 38 ng/mL
- Papp B→A at 2 h, 5 µM [9]: 0.29 ×10⁻⁶ cm/s
- solubility kinetic at 1.5 h, 500 µM [10]: 364 µM (≈ 146 µg/mL)
- half-life [11]: 35.4 min
- microsomal CLint at 50 min, 3 µM (in vitro [12]): 462 µL/min/mg
- AUC [13]: 29 ng·h/mL
- remaining at 1 h, 5 µM [14]: 95%
- bioavailability [15]: 2.4%
- Time (Mus musculus [16]): 30 min
- EC50 (A-431 [17]): 6780 nM
- IC50 [3]: 40 nM
- microsomal CLint at 50 min, 3 µM (in vitro [18]): 1980 µL/min/mg
- Ratio [19]: 6
- IC50 [5]: 3 nM
- Vd [20]: 12.4 L/kg
- IC50 [6]: 2 nM
- EC50 (HCC827): 90 nM
- remaining at 1 h, 5 µM [21]: 100%
- efflux ratio at 2 h, 5 µM (in vitro [22]): 1
- permeability [23]: 66%
- Activity (Mus musculus [24]): Non-Toxic
- Activity [25]: Active
- Activity (Mus musculus [26]): Non-Toxic
- clearance [27]: 277 mL/min/kg
- F (Mus musculus [28]): 156%
- C0 [29]: 138 ng/mL
- fraction unbound at 6 h, 5 µM [30]: 0.12
- EC50 (NCI-H1975 [31]): 230 nM
- half-life [32]: 14.4 min
- Cmax [33]: 4540 ng/mL
- Papp A→B at 2 h, 5 µM [34]: 0.3 ×10⁻⁶ cm/s
- EC50 (A549 [35]): 23300 nM
- Ratio [36]: 50
- fCmax (Mus musculus [37]): 1.36 µM
- AUC [38]: 1890 ng·h/mL
- half-life [39]: 36 min
- AUC [40]: 121 ng·h/mL
- Time (Mus musculus [41]): 75 min

Compound: C=CC(=O)Nc1cc(Nc2nccc(-c3cn(C)c4ccccc34)n2)c(OC)cc1N(C)CCN(C)C [OSIMERTINIB]
- Papp B→A at 2 h, 5 µM [9]: 0.06 ×10⁻⁶ cm/s
- solubility kinetic at 1.5 h, 500 µM [10]: 265 µM (≈ 132 µg/mL)
- microsomal CLint at 50 min, 3 µM (in vitro [12]): 4.1 µL/min/mg
- remaining at 1 h, 5 µM [14]: 100%
- microsomal CLint at 50 min, 3 µM (in vitro [18]): 51 µL/min/mg
- EC50 (HCC827): < 14 nM
- remaining at 1 h, 5 µM [21]: 100%
- permeability [23]: 112%
- fraction unbound at 6 h, 5 µM [30]: 0.03
- Papp A→B at 2 h, 5 µM [34]: 0.084 ×10⁻⁶ cm/s
- EC50 (A549 [35]): 1830 nM
